These results are taken from patent publication US20230066011A1, “PYRROLOPYRIMIDINE DERIVATIVE, AND PHARMACEUTICAL COMPOSITION FOR PREVENTING OR TREATING PROTEIN KINASE-RELATED DISEASE COMPRISING SAME AS ACTIVE INGREDIENT” (VORONOI CO., LTD., priority 2019, published 2023).

Common to all, as to format: binding
For one test, the target named is LRRK2 (Homo sapiens, UniProt Q5S007). As to the kind of experiment: ScanMAX Kinase analysis panel, LRRK2. Also on record: purchased DiscoverX Corp. (ScanMAX Kinase analysis panel, service). As to conditions: 1 μM in DMSO; <35% considered inhibitory; read-out: percent control (% control), LRRK2. The method, then:
(§1) Specifically, the enzyme (kinase) selectivity of Example compounds 238, 361, 411, 157, 161, 228, and 158 selected from the Example compounds of the present invention was determined by commissioning DiscoverX Corp., and an experiment was performed using a ScanMAX™ Kinase analysis panel. In this case, a concentration of the drug with which the enzymes were treated was 1 μM in DMSO, and the percent control (% control) was defined in the same manner as in the following Expression 1.
(§2) (Example Compound−Positive Control)/(Negative Control−Positive Control)×100 [Expression 1]
(§3) wherein the positive control represents a compound having a percent control of 0%, and the negative control represents DMSO having a percent control of 100%. For the enzyme selectivity of the present invention, it was considered that the compound has an inhibitory activity on each of the enzymes when the percent control for the corresponding enzyme was <35% (i. e., less than 35%).

The target of the next test is T1, PHKG2 (Homo sapiens, UniProt P15735).
T1 construct: purchased DiscoverX Corp. (ScanMAX Kinase analysis panel, service)
T1 sequence (P15735 1-406): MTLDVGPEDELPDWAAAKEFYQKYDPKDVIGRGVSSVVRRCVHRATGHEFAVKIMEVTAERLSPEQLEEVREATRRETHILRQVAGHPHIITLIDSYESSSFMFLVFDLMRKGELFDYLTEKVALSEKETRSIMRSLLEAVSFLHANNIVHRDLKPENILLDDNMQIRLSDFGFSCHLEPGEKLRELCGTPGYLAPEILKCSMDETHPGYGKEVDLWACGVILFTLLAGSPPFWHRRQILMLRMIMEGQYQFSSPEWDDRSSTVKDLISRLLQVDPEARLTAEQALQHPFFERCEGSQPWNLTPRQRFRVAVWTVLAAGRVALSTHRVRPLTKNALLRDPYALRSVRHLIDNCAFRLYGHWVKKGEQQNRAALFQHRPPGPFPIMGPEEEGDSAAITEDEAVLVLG
Kind of test: ScanMAX Kinase analysis panel, PHKG2. As to conditions: 1 μM in DMSO; <35% considered inhibitory; read-out: percent control (% control), PHKG2. As for the experimental part:
as §1, §2, §3

The next test addresses T2, PLK4 (Homo sapiens, UniProt O00444).
T2 construct: purchased DiscoverX Corp. (ScanMAX Kinase analysis panel, service)
T2 sequence (O00444 1-970): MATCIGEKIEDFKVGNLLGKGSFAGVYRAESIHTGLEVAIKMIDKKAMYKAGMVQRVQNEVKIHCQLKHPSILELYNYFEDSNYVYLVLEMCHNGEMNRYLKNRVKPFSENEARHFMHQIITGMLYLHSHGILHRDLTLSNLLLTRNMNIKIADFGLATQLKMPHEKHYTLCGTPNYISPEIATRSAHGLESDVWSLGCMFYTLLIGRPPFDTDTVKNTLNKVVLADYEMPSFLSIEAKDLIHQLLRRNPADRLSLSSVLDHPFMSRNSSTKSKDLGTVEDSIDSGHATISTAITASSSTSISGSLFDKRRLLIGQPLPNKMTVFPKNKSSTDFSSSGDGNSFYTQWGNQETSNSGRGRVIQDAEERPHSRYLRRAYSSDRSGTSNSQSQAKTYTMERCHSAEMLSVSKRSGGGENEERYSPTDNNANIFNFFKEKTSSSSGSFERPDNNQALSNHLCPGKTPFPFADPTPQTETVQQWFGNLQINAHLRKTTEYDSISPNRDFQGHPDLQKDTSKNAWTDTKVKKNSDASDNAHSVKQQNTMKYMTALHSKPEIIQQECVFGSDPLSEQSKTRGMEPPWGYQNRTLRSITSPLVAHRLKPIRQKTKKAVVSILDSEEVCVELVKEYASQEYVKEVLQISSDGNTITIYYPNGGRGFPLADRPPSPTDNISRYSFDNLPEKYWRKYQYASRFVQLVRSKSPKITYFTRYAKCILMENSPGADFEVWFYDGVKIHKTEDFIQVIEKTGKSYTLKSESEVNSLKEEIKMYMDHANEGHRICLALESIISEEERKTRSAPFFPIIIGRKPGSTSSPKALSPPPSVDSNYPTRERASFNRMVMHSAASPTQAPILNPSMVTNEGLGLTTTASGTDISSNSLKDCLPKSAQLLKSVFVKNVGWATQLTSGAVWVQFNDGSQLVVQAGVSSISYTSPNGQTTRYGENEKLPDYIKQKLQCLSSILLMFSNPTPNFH
As to the kind of experiment: ScanMAX Kinase analysis panel, PLK4. As to conditions: 1 μM in DMSO; <35% considered inhibitory; read-out: percent control (% control), PLK4. The method, then: as §1, §2, §3

Another test has as its target T3, DYRK2 (Homo sapiens, UniProt Q92630).
T3 construct: purchased DiscoverX Corp. (ScanMAX Kinase analysis panel, service)
T3 sequence (Q92630 1-601): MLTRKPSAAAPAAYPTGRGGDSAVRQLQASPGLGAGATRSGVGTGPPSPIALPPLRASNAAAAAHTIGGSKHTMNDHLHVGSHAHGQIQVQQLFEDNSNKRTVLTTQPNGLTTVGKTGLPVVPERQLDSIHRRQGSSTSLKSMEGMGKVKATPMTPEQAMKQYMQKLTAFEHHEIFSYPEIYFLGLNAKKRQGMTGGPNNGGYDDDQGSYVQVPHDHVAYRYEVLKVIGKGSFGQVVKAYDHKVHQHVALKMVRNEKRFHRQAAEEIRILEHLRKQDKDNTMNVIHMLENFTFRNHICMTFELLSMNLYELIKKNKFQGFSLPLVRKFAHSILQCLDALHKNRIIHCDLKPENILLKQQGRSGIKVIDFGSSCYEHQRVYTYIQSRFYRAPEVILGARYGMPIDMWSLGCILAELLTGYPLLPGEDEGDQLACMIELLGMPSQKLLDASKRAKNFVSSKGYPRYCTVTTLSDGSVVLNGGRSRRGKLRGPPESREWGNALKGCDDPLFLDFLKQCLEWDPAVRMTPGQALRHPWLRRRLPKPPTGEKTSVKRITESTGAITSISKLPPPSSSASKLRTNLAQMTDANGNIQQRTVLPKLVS
Kind of test: ScanMAX Kinase analysis panel, DYRK2. The conditions noted are these: 1 μM in DMSO; <35% considered inhibitory; read-out: percent control (% control), DYRK2. As for the experimental part:
as §1, §2, §3

The target of a further test is T4, CLK1 (Homo sapiens, UniProt P49759).
T4 construct: purchased DiscoverX Corp. (ScanMAX Kinase analysis panel, service)
Kind of test: ScanMAX Kinase analysis panel, CLK1. As to conditions: 1 μM in DMSO; <35% considered inhibitory; read-out: percent control (% control), CLK1. The method, then: as §1, §2, §3

The target in the next test is T5, PHKG1 (Homo sapiens, UniProt Q16816).
T5 construct: purchased DiscoverX Corp. (ScanMAX Kinase analysis panel, service)
As to the kind of experiment: ScanMAX Kinase analysis panel, PHKG1. The conditions noted are these: 1 μM in DMSO; <35% considered inhibitory; read-out: percent control (% control), PHKG1. The method, then: as §1, §2, §3

For the next test, the target named is T6, CLK2 (Homo sapiens, UniProt P49760).
T6 construct: purchased DiscoverX Corp. (ScanMAX Kinase analysis panel, service)
Kind of test: ScanMAX Kinase analysis panel, CLK2. The conditions noted are these: 1 μM in DMSO; <35% considered inhibitory; read-out: percent control (% control), CLK2. As for the experimental part: as §1, §2, §3

T4 sequence (P49759 whole entry): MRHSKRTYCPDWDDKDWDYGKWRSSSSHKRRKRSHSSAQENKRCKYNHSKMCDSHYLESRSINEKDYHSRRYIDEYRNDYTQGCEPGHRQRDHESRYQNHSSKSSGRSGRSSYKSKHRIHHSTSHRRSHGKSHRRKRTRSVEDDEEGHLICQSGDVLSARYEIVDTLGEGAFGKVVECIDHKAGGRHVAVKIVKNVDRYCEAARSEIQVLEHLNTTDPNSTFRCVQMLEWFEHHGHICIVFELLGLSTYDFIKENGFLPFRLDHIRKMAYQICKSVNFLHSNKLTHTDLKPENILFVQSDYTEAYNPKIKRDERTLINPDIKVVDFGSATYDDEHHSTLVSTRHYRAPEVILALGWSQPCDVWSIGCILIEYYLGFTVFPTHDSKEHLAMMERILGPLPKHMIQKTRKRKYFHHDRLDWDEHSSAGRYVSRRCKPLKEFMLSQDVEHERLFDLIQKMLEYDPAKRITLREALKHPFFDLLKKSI
T5 sequence (Q16816 whole entry): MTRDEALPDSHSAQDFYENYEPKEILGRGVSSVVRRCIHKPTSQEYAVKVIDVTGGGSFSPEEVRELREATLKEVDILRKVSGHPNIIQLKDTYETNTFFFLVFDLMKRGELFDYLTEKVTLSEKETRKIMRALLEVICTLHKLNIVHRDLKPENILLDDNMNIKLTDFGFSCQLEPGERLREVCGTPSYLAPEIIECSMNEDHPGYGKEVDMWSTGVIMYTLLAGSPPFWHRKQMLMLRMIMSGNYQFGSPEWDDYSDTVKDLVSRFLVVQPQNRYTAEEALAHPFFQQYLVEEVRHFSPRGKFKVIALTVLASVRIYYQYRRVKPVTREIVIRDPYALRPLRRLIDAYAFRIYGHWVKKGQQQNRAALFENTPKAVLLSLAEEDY
Chain of LRRK2 (Q5S007 whole entry): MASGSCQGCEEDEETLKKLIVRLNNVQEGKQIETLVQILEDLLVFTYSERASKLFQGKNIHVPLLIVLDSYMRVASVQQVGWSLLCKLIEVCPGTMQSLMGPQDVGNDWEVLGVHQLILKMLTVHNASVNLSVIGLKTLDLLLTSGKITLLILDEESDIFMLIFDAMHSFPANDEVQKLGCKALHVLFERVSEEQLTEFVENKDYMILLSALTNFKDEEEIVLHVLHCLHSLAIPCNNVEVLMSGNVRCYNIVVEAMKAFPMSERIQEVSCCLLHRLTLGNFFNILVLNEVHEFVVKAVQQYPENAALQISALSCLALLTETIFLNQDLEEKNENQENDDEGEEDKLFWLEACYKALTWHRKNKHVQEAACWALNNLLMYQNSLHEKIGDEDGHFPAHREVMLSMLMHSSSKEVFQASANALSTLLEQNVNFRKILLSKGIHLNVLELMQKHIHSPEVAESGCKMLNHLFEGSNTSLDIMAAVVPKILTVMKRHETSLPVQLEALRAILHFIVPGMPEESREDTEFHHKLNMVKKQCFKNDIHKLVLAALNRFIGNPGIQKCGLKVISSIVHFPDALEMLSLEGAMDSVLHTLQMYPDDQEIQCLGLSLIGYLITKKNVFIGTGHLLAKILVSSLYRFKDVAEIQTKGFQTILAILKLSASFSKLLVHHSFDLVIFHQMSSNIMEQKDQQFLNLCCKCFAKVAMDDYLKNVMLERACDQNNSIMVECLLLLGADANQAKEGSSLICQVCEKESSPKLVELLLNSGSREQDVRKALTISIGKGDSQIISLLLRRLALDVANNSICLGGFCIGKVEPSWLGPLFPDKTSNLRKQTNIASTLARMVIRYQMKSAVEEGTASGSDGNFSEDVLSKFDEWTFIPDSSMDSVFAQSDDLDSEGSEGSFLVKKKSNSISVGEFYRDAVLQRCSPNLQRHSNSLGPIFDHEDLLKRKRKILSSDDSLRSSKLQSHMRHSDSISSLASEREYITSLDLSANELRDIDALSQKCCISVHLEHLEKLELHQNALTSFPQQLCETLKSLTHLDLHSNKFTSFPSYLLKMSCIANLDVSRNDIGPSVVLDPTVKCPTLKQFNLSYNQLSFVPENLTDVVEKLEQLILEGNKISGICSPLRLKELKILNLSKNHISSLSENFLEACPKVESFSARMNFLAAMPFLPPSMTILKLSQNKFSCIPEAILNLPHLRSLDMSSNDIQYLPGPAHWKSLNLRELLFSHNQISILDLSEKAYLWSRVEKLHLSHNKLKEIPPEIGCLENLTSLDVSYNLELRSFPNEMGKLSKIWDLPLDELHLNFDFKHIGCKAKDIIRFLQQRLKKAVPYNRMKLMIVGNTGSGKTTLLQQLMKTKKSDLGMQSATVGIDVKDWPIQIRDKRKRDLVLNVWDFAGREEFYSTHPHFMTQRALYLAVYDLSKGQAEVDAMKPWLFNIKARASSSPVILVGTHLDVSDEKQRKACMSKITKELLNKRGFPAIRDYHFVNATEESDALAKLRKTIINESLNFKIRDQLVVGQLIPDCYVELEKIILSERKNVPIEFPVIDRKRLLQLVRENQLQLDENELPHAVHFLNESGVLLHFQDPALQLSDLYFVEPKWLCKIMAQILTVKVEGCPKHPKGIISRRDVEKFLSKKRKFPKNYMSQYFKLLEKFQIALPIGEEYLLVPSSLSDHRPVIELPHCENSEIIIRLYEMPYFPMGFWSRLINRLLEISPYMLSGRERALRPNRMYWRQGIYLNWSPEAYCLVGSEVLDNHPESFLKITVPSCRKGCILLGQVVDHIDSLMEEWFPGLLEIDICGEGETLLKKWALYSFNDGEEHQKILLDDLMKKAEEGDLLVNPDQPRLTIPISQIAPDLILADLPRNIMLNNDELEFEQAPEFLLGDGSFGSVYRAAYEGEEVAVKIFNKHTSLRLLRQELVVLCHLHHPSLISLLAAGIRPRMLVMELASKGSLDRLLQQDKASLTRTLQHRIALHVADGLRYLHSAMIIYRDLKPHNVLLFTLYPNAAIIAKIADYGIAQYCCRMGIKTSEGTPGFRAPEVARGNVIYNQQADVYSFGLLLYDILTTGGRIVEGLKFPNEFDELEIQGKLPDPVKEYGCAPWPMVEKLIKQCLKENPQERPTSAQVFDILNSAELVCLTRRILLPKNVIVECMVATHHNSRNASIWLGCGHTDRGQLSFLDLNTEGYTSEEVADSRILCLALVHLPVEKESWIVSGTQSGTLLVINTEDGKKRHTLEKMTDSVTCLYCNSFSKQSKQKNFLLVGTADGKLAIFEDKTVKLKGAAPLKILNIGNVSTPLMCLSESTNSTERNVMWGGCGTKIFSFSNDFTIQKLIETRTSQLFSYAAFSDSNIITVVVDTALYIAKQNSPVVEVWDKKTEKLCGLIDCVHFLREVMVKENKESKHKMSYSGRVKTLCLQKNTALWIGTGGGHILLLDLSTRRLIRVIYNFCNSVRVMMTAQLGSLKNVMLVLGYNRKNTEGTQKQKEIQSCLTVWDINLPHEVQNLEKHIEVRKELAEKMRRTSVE
T6 sequence (P49760 whole entry): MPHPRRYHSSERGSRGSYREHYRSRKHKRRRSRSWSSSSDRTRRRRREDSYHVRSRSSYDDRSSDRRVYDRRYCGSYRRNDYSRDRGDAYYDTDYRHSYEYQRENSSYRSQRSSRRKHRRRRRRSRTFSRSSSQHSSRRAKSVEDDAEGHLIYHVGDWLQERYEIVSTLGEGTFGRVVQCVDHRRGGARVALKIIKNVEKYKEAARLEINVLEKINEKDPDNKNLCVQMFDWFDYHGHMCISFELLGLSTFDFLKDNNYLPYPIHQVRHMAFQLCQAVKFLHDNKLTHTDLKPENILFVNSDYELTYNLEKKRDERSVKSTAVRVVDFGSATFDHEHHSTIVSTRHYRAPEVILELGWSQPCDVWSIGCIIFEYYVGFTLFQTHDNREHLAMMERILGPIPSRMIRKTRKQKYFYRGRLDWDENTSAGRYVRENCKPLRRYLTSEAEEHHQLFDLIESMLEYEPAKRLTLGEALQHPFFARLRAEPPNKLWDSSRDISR

As for `O=C(c1ccc(Nc2nc(C3CC3)c3c(C(F)(F)F)c[nH]c3n2)c2c1OCCO2)N1CCC(N2CCOCC2)CC1` [Example 228, (8-((4-cyclopropyl-5-(trifluoromethyl)-7H-pyrrolo[2,3-d]pyrimidin-2-yl)amino)-2,3-dihydrobenzo[b][1,4]dioxin-5-yl)(4-morpholinopiperidin-1-yl)methanone], the remaining binding at 1 µM is 0.3% on LRRK2; 5.5% at PHKG2; 3.2% at PLK4; 16% at DYRK2; 6.1% on CLK1; 30% on PHKG1. Further, the remaining binding at 1 µM on CLK2 came out at 5.5%.

For `C=CCNc1nc(Nc2ccc(S(=O)(=O)N3CCC(N4CCOCC4)CC3)cc2OC)nc2[nH]cc(C#N)c12` [Example 361, 4-(allylamino)-2-((2-methoxy-4-((4-morpholino-piperidin-1-yl)sulfonyl)phenyl)amino)-7H-pyrrolo[2,3-d]pyrimidine-5-carbonitrile], the remaining binding at 1 µM on LRRK2 was found to be 0%; at PHKG2, 3%; on PLK4 it was 0.3%; on DYRK2, 10%; at CLK1 it was 2.4%; on PHKG1, 9.7%. In addition, the remaining binding at 1 µM at CLK2 was found to be 3.9%.

As for `CNc1nc(Nc2ccc(P3(=O)CCN(C4CC4)CC3)cc2OC)nc2[nH]cc(C(F)(F)F)c12` [Example 411, 1-cyclopropyl-4-(3-methoxy-4-((4-(methylamino)-5-(trifluoromethyl)-7H-pyrrolo[2,3-d]pyrimidin-2-yl)amino)phenyl)-1,4-azaphosphinane-4-oxide], the remaining binding at 1 µM on LRRK2 stood at 1.9%; on PHKG2, 2.5%; on PLK4, 23%; on DYRK2, 28%; at CLK1 it was 7.2%; at PHKG1, 17%. Further, the remaining binding at 1 µM at CLK2 was 0%.

For `CCCNc1nc(Nc2ccc(S(=O)(=O)N3CCC(N4CCOCC4)CC3)cc2OC)nc2[nH]cc(C(F)(F)F)c12` [Example 161, N^2-(2-methoxy-4-((4-morpholinopiperidin-1-yl)sulfonyl)phenyl)-N^4-propyl-5-(trifluoromethyl)-7H-pyrrolo[2,3-d]pyrimidine-2,4-diamine], the remaining binding at 1 µM at LRRK2 is 1%; at PHKG2 it was 21%; on PLK4, 11%; on DYRK2, 33%; on CLK1, 5.5%; on PHKG1 it was 24%. Moreover, the remaining binding at 1 µM at CLK2 worked out at 3.9%.

As to `CCNc1nc(Nc2ccc(S(=O)(=O)N3CCC(N4CCOCC4)CC3)cc2OC)nc2[nH]cc(C(F)(F)F)c12` [Example 158, N^4-ethyl-N^2-(2-methoxy-4-((4-morpholinopiperidin-1-yl)sulfonyl)phenyl)-5-(trifluoromethyl)-7H-pyrrolo[2,3-d]pyrimidine-2,4-diamine 2,2,2-trifluoroacetate], the remaining binding at 1 µM on LRRK2 was found to be 0%; at PHKG2 it was 51%; on PLK4, 26%; on DYRK2, 25%; at CLK1, 1%; at PHKG1 it was 25%. At CLK2, the remaining binding at 1 µM came to 22%.

On to `CNc1nc(Nc2ccc(S(=O)(=O)N3CCC(N4CCOCC4)CC3)cc2OC)nc2[nH]cc(C(F)(F)F)c12` [Example 157, N^2-(2-methoxy-4-((4-morpholinopiperidin-1-yl)sulfonyl)phenyl)-N^4-methyl-5-(trifluoromethyl)-7H-pyrrolo[2,3-d]pyrimidine-2,4-diamine 2,2,2-trifluoroacetate], for which the remaining binding at 1 µM on LRRK2 was 0.7%; on PHKG2, 5.8%; on PLK4, 10%; at DYRK2, 7%; at CLK1 it was 6.7%; at PHKG1 it was 7.8%. In addition, the remaining binding at 1 µM on CLK2 was found to be 2.9%.

Consider `CNc1nc(Nc2ccc(C(=O)N3CCC(N4CCOCC4)CC3)c3c2OCCO3)nc2[nH]cc(C(F)(F)F)c12` [Example 238, (8-((4-(methylamino)-5-(trifluoromethyl)-7H-pyrrolo[2,3-d]pyrimidin-2-yl)amino)-2,3-dihydrobenzo[b][1,4]dioxin-5-yl)(4-morpholinopiperidin-1-yl)methanone], for which the remaining binding at 1 µM on LRRK2 came to 0.45%; on PHKG2, 2.2%; on PLK4, 7.8%; on DYRK2 it was 19%; on CLK1 it was 16%; at PHKG1, 3.6%. Further, at CLK2, the remaining binding at 1 µM amounted to 0.65%.
